Measurements published in patent publication US20240059703A1 (AMGEN INC., priority 2021, published 2024).

Legend:
[1] = tested on: MIA PaCa-2 (human pancreatic carcinoma) cells; test: Cell Viability Assay (CellTiter-Glo), MIA PaCa-2; format: cell-based; details: Homo sapiens, MIA PaCa-2, 72 h
Experimental: Serially-diluted compound or DMSO was added to the cells, and plates were incubated at 37° C., 5% CO2 for 72 h. Cell viability was measured using a CellTiter-Glo® Luminescent Cell Viability Assay kit (Promega) according to the manufacturer's protocol. The luminescence signal of treated samples was normalized to DMSO control, and data were analyzed using a 4-parameter logistic model to calculate IC50 values.

[2] = tested on: A549 (human lung carcinoma) cells; test: Cell Viability Assay (CellTiter-Glo), A549; format: cell-based; details: Homo sapiens, A549, 72 h
How it was run: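 RPMI 1640/10% FBS; seed 1.67E+04 cells/mL, o/n 37° C., 5% CO2; serial-dilution cmpd 72 h; CellTiter-Glo luminescence vs DMSO; 4-parameter logistic fit → IC50.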

[3] = target: KRAS G12C (Homo sapiens (Human), UniProt P01116, C118A/G12C); test: 2 h coupled exchange assay; format: biochemical; details: Avg 2 h Coupled exchange IC50, 2 h compound pre-incubation
Sequence of KRAS G12C (P01116 other isoform, or with tags, fused parts or gaps G12C/C118A): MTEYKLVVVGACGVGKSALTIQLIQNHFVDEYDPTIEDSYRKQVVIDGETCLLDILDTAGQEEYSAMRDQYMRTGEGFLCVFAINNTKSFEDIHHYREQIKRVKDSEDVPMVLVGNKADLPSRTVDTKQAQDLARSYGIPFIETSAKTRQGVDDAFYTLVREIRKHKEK
Experimental: The term “2 h coupled exchange assay” or “20 h coupled exchange assay” as used herein refers to the assay described in the Section entitled “BIOLOGICAL EVALUATION.”

SMILES	IC50 [1]	IC50 [2]	IC50 [3]
C=CC(=O)N1CC2(CCN(c3nc4c(c(-c5cc(O)ccc5Cl)c3C)CCN(C(C)C)C4)C2)C1 [Example 18-9, 1-(6-(4-(2-chloro-5-hydroxyphenyl)-3-methyl-7-(2-propanyl)-5,6,7,8-tetrahydro-1,7-naphthyridin-2-yl)-2,6-diazaspiro[3.4]octan-2-yl)-2-propen-1-one]	316 nM	> 5000 nM	419 nM
C=CC(=O)N1CC2(CCN(c3nc4c(c(-c5cccc6cc(O)ccc56)c3C)CCN(C(C)=O)C4)C2)C1 [Example 18-10, 1-(6-(7-acetyl-4-(6-hydroxy-1-naphthalenyl)-3-methyl-5,6,7,8-tetrahydro-1,7-naphthyridin-2-yl)-2,6-diazaspiro[3.4]octan-2-yl)-2-propen-1-one]	381 nM	> 5000 nM	260 nM
C=CC(=O)N1CC2(CCN(c3nc4c(c(-c5cc(O)ccc5Cl)c3C)CCN(C3CCCN(C)C3)C4)C2)C1 [Example 18-11, 1-(6-(4-(2-chloro-5-hydroxyphenyl)-3-methyl-7-((3R)-1-methyl-3-piperidinyl)-5,6,7,8-tetrahydro-1,7-naphthyridin-2-yl)-2,6-diazaspiro[3.4]octan-2-yl)-2-propen-1-one|1-(6-(4-(2-chloro-5-hydroxyphenyl)-3-methyl-7-((3S)-1-methyl-3-piperidinyl)-5,6,7,8-tetrahydro-1,7-naphthyridin-2-yl)-2,6-diazaspiro[3.4]octan-2-yl)-2-propen-1-one]	174 nM	> 5000 nM	167 nM
C=CC(=O)N1CC2(CCN(c3nc4c(c(-c5ccc(F)cc5F)c3C)CCN(c3scnc3C)C4)C2)C1 [Example 18-12, 1-(6-(4-(2,4-difluorophenyl)-3-methyl-7-(4-methyl-1,3-thiazol-5-yl)-5,6,7,8-tetrahydro-1,7-naphthyridin-2-yl)-2,6-diazaspiro[3.4]octan-2-yl)-2-propane-1-one]	335 nM	12500 nM	172 nM
C=CC(=O)N1CC2(CCN(c3nc4c(c(-c5cc(O)ccc5F)c3C)CCN(c3scnc3C)C4)C2)C1 [Example 18-13, 1-(6-(4-(2-fluoro-5-hydroxyphenyl)-3-methyl-7-(4-methyl-1,3-thiazol-5-yl)-5,6,7,8-tetrahydro-1,7-naphthyridin-2-yl)-2,6-diazaspiro[3.4]octan-2-yl)-2-propen-1-one]	89 nM	> 5000 nM	86 nM
C=CC(=O)N1CC2(CCN(c3nc4c(c(-c5c(C)ccc6[nH]ncc56)c3C)CCN(C3COC3)C4)C2)C1 [Example 18-14, 1-(6-(3-methyl-4-(5-methyl-1H-indazol-4-yl)-7-(3-oxetanyl)-5,6,7,8-tetrahydro-1,7-naphthyridin-2-yl)-2,6-diazaspiro[3.4]octan-2-yl)-2-propen-1-one]	167 nM	> 25000 nM	376 nM
C=CC(=O)N1CC2(CCN(c3nc4c(c(-c5c(F)ccc6[nH]ncc56)c3C)CCN(C(C)C)C4)C2)C1 [Example 18-15, 1-(6-(4-(5-fluoro-1H-indazol-4-yl)-3-methyl-7-(2-propanyl)-5,6,7,8-tetrahydro-1,7-naphthyridin-2-yl)-2,6-diazaspiro[3.4]octan-2-yl)-2-propen-1-one]	230 nM	> 25000 nM	720 nM
C=CC(=O)N1CC2(CCN(c3nc4c(c(-c5c(C)ccc6[nH]ncc56)c3C)CCN(C3CC3)C4)C2)C1 [Example 18-16, 1-(6-(7-cyclopropyl-3-methyl-4-(5-methyl-1H-indazol-4-yl)-5,6,7,8-tetrahydro-1,7-naphthyridin-2-yl)-2,6-diazaspiro[3.4]octan-2-yl)-2-propen-1-one]	188 nM	> 5000 nM	355 nM
C=CC(=O)N1CC2(CCN(c3nc4c(c(-c5cccc6cc(O)ccc56)c3C)CCN(C3CC3)C4)C2)C1 [Example 18-17, 1-(6-(7-cyclopropropyl-4-(6-hydroxy-1-naphthalenyl)-3-methyl-5,6,7,8-tetrahydro-1,7-naphthyridin-2-yl)-2,6-diazaspiro[3.4]octan-2-yl)-2-propen-1-one]	133 nM	> 5000 nM	79 nM
C=CC(=O)N1CC2(CCN(c3nc4c(c(-c5cccc6cc(O)ccc56)c3C)CCN(CC(O)C(F)(F)F)C4)C2)C1 [Example 18-18, 1-(6-(4-(6-hydroxy-1-naphthalenyl)-3-methyl-7-((2R)-3,3,3-trifluoro-2-hydroxypropyl)-5,6,7,8-tetrahydro-1,7-naphthyridin-2-yl)-2,6-diazaspiro[3.4]octan-2-yl)-2-propen-1one|1-(6-(4-(6-hydroxy-1-naphthalenyl)-3-methyl-7-((2S)-3,3,3-trifluoro-2-hydroxypropyl)-5,6,7,8-tetrahydro-1,7-naphthyridin-2-yl)-2,6-diazaspiro[3.4]octan-2-yl)-2-propen-1-one]	402 nM	> 5000 nM	106 nM
C=CC(=O)N1CC2(CCN(c3nc4c(c(-c5c(C)ccc6cnn(C)c56)c3C)CCN(C3CCCN(C)C3)C4)C2)C1 [Example 18-20, 1-(6-(4-(1,6-dimethyl-1H-indazol-7-yl)-3-methyl-7-((3R)-1-methyl-3-piperidinyl)-5,6,7,8-tetrahydro-1,7-naphthyridin-2-yl)-2,6-diazaspiro[3.4]octan-2-yl)-2-propen-1-one|1-(6-(4-(1,6-dimethyl-1H-indazol-7-yl)-3-methyl-7-((3S)-1-methyl-3-piperidinyl)-5,6,7,8-tetrahydro-1,7-naphthyridin-2-yl)-2,6-diazaspiro[3.4]octan-2-yl)-2-propen-1-one]	135 nM	> 25000 nM	374 nM
C=CC(=O)N1CC2(CCN(c3nc4c(c(-c5cccc(F)c5O)c3C)CCN(c3scnc3C)C4)C2)C1 [Example 18-21, 1-(6-(4-(3-fluoro-2-hydroxyphenyl)-3-methyl-7-(4-methyl-1,3-thiazol-5-yl)-5,6,7,8-tetrahydro-1,7-naphthyridin-2-yl)-2,6-diazaspiro[3.4]octan-2-yl)-2-propen-1-one]	3370 nM	> 25000 nM	800 nM

Next, values leading:

IC50 [1]	IC50 [2]	IC50 [3]	SMILES
374 nM	> 5000 nM	74 nM	C=CC(=O)N1CC2(CCN(c3nc4cc(-c5scnc5C)cnc4c(-c4cccc(C)c4C)c3C#N)C2)C1 [Example 19-1, 4-(2,3-Dimethylphenyl)-7-(4-methyl-1,3-thiazol-5-yl)-2-(2-(2-propenoyl)-2,6-diazaspiro[3.4]octan-6-yl)-1,5-naphthyridine-3-carbonitrile]
1450 nM	> 5000 nM	126 nM	C=CC(=O)N1CC2(CCN(c3nc4cc(-c5scnc5C)ccc4c(-c4ccccc4C)c3C#N)C2)C1 [Example 19-2, 4-(2-methylphenyl)-7-(4-methyl-1,3-thiazol-5-yl)-2-(2-(2-propenoyl)-2,6-diazaspiro[3.4]octan-6-yl)-3-quinolinecarbonitrile]
717 nM	4180 nM	58 nM	C=CC(=O)N1CC2(CCN(c3nc4cc(-c5scnc5C)ccc4c(-c4c(O)cccc4F)c3C#N)C2)C1 [Example 19-3, 4-(2-fluoro-6-hydroxyphenyl)-7-(4-methyl-1,3-thiazol-5-yl)-2-(2-(2-propenoyl)-2,6-diazaspiro[3.4]octan-6-yl)-3-quinolinecarbonitrile]
452 nM	> 5000 nM	96 nM	C=CC(=O)N1CC2(CCN(c3nc4cc(-c5scnc5C)cnc4c(-c4ccc(F)cc4F)c3C#N)C2)C1 [Example 19-5, 4-(2,4-difluorophenyl)-7-(4-methyl-1,3-thiazol-5-yl)-2-(2-(2-propenoyl)-2,6-diazaspiro[3.4]octan-6-yl)-1,5-naphthyridine-3-carbonitrile]
1130 nM	> 5000 nM	363 nM	C=CC(=O)N1CC2(CCN(c3nc4cc(-c5scnc5C)cnc4c(-c4ccccc4OC)c3C#N)C2)C1 [Example 19-6, 4-(2-methoxyphenyl)-7-(4-methyl-1,3-thiazol-5-yl)-2-(2-(2-propenoyl)-2,6-diazaspiro[3.4]octan-6-yl)-1,5-naphthyridine-3-carbonitrile]
495 nM	14100 nM	789 nM	C=CC(=O)N1CC2(CCN(c3nc4cc(-c5cncn5C)cnc4c(-c4ccccc4F)c3C#N)C2)C1 [Example 19-7, 4-(2-fluorophenyl)-7-(1-methyl-1H-imidazol-5-yl)-2-(2-(2-propenoyl)-2,6-diazaspiro[3.4]octan-6-yl)-1,5-naphthyridine-3-carbonitrile]
320 nM	11200 nM	280 nM	C=CC(=O)N1CC2(CCN(c3nc4cc(-c5scnc5C)cnc4c(-c4ccc(F)cc4)c3C#N)C2)C1 [Example 19-8, 4-(4-fluorophenyl)-7-(4-methyl-1,3-thiazol-5-yl)-2-(2-(2-propenoyl)-2,6-diazaspiro[3.4]octan-6-yl)-1,5-naphthyridine-3-carbonitrile]
204 nM	> 5000 nM	56 nM	C=CC(=O)N1CC2(CCN(c3nc4cc(-c5sc(CO)nc5C)cnc4c(-c4ccccc4Cl)c3C#N)C2)C1 [Example 19-9, 4-(2-chlorophenyl)-7-(2-(hydroxymethyl)-4-methyl-1,3-thiazol-5-yl)-2-(2-(2-propenoyl)-2,6-diazaspiro[3.4]octan-6-yl)-1,5-naphthyridine-3-carbonitrile]
